These are literature values, as cited in patent publication US7169819B2, “Pharmaceutical compositions of fenretinide having increased bioavailability and methods of using the same” (Childrens Hospital Los Angeles, priority 2000, dated 2007).

The conditions of data set [1]: rodents.
For data set [2] the following is noted: background statement.

Take `CC1=C(/C=C/C(C)=C/C=C/C(C)=C/C(=O)Nc2ccc(O)cc2)C(C)(C)CCC1` [Fenretinide, all-trans-N-(4-hydroxyphenyl)retinamide]: the half-life in data set [1] is 12 to 16 h. Moreover, the “Solubility in aqueous solution” value in data set [2] is “minimally soluble”.

A word on the half-life: it is the time needed for the level to fall by half in the phase considered.
